These results are taken from patent US7491819B1 (priority 2004, dated 2009).

This assay has as its target T1, HIV-integrase (Human immunodeficiency virus type 1 group M subtype B, UniProt P12497).
T1 construct: Recombinant integrase (0.26 ng) was incubated with the beads
In words: HIV-Integrase Inhibition Activity (SPA bead strand-transfer assay). The settings on record: Table 1; read-out: Activity (HIV-integrase inhibition, IC50 class). The assay is classed as biochemical. The method, boiled down:
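Strand-transfer read-out: CPM from P33-labelled target DNA (0.1 fmol) joined to bead-bound biotin substrate DNA (5 pmole), with EDTA stop at 10 mM final. Integrase (0.26 ng) prebound to streptavidin SPA beads 90 min, 37° C, and washed before adding inhibitor.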
As to `CC1(C)OCCn2c1nc(C(=O)NCc1ccc(F)cc1-c1ccc(=O)[nH]c1)c(O)c2=O` [Example 79, Pyrimido[2,1-c][1,4]oxazine-2-carboxamide, N-[[2-(1,6-dihydro-6-oxo-3-pyridinyl)-4-fluorophenyl]methyl]-4,6,7,9-tetrahydro-3-hydroxy-9,9-dim ethyl-4-oxo-], the IC50 (as a rule, the concentration that gives 50% inhibition) is 2 to 100 nM. The same measure for `CC1(C)OCCn2c1nc(C(=O)NCc1ccccc1-c1cnc3ccccc3c1)c(O)c2=O` [Example 194, Pyrimido[2,1-c][1,4]oxazine-2-carboxamide, 4,6,7,9-tetrahydro-3-hydroxy-9,9-dimethyl-4-oxo-N-[[2-(3-quinolinyl)phenyl]methyl]-]: 2 to 100 nM. The same measure for `CC1(C)OCCn2c1nc(C(=O)NCc1ccccc1-c1ccc(C#N)cc1)c(O)c2=O` [Example 166, Pyrimido[2,1-c][1,4]oxazine-2-carboxamide, N-[(4′-cyano[1,1′-biphenyl]-2-yl)methyl]-4,6,7,9-tetrahydro-3-hydroxy-9,9-dimethyl-4-oxo-]: 100 to 1000 nM. Regarding `CC1(C)OCCn2c1nc(C(=O)NCc1cc(F)cc(F)c1)c(O)c2=O` [Example 146, Pyrimido[2,1-c][1,4]oxazine-2-carboxamide, N-[(3,5-difluorophenyl)methyl]-4,6,7,9-tetrahydro-3-hydroxy-9,9-dimethyl-4-oxo-], the IC50 lay within 2 to 100 nM.

Turning to `CC1(C)OCCn2c1nc(C(=O)NCc1ccccc1-c1ccc(C(N)=O)cc1)c(O)c2=O` [Example 173, Pyrimido[2,1-c][1,4]oxazine-2-carboxamide, N-[[4′-(aminocarbonyl)[1,1′-biphenyl]-2-yl]methyl]-4,6,7,9-tetrahydro-3-hydroxy-9,9-dimethyl-4-oxo-], the IC50 is 2 to 100 nM. Consider `CSc1ccccc1CNC(=O)c1nc2n(c(=O)c1O)CCOC2(C)C` [Example 112, Pyrimido[2,1-c][1,4]oxazine-2-carboxamide, 4,6,7,9-tetrahydro-3-hydroxy-9,9-dimethyl-N-[[2-(methylthio)phenyl]methyl]-4-oxo-], for which the concentration for half-maximal inhibition (IC50) is 2 to 100 nM. The value for `CC1(C)OCCn2c1nc(C(=O)NCc1ccc(F)cc1F)c(O)c2=O` [Example 35, Pyrimido[2,1-c][1,4]oxazine-2-carboxamide, N-[(2,4-difluorophenyl)methyl]-4,6,7,9-tetrahydro-3-hydroxy-9,9-dimethyl-4-oxo-] was 2 to 100 nM; that for `COc1ccc(CNC(=O)c2nc3n(c(=O)c2O)CCOC3(C)C)c(OC)c1` [Example 232, Pyrimido[2,1-c][1,4]oxazine-2-carboxamide, N-[(2,4-dimethoxyphenyl)methyl]-4,6,7,9-tetrahydro-3-hydroxy-9,9-dimethyl-4-oxo-] was 2 to 100 nM; that for `CN(CCO)C(=O)c1ncn(-c2cc(F)ccc2CNC(=O)c2nc3n(c(=O)c2O)CCOC3(C)C)n1` [Example 67, Pyrimido[2,1-c][1,4]oxazine-2-carboxamide, N-[[4-fluoro-2-[3-[[(2-hydroxyethyl)methylamino]carbonyl]-1H-1,2,4-triazol-1-yl]phenyl]methyl]-4,6,7,9-tetrahydro-3-hydroxy-9,9-dimethyl-4-oxo-] was 2 to 100 nM. Regarding `CC1(C)OCCn2c1nc(C(=O)NCc1ccccc1-c1ccccc1)c(O)c2=O` [Example 160, Pyrimido [2,1-c][1,4]oxazine-2-carboxamide, N-([1,1′-biphenyl]-2-ylmethyl)-4,6,7,9-tetrahydro-3-hydroxy-9,9-dimethyl-4-oxo-], the half-maximal inhibitory concentration (IC50) was 2 to 100 nM.

For `CC1(C)OCCn2c1nc(C(=O)NCc1ccc(F)cc1Nc1nccs1)c(O)c2=O` [Example 115, Pyrimido[2,1-c][1,4]oxazine-2-carboxamide, N-[[4-fluoro-2-(2-thiazolylamino)phenyl]methyl]-4,6,7,9-tetrahydro-3-hydroxy-9,9-dimethyl-4-oxo-], the half-maximal inhibitory concentration (IC50) fell in the range of 2 to 100 nM. With `CC1(C)OCCn2c1nc(C(=O)NCc1cccc3c1S(=O)(=O)CC3)c(O)c2=O` [Example 140, Pyrimido[2,1-c][1,4]oxazine-2-carboxamide, N-[(2,3-dihydro-1,1-dioxidobenzo[b]thien-7-yl)methyl]-4,6,7,9-tetrahydro-3-hydroxy-9,9-dimethyl-4-oxo-], the IC50 fell in the range of 2 to 100 nM. The value for `COc1cccc(-c2ccccc2CNC(=O)c2nc3n(c(=O)c2O)CCOC3(C)C)c1` [Example 164, Pyrimido[2,1-c][1,4]oxazine-2-carboxamide, 4,6,7,9-tetrahydro-3-hydroxy-N-[(3′-methoxy[1,1′-biphenyl]-2-yl)methyl]-9,9-dimethyl-4-oxo-] was 2 to 100 nM; that for `CC1(C)OCCn2c1nc(C(=O)NCc1ccc(Cl)cc1)c(O)c2=O` [Example 34, Pyrimido[2,1-c][1,4]oxazine-2-carboxamide, N-[(4-chlorophenyl)methyl]-4,6,7,9-tetrahydro-3-hydroxy-9,9-dimethyl-4-oxo-] was 2 to 100 nM; that for `COc1ncc(-c2ccccc2CNC(=O)c2nc3n(c(=O)c2O)CCOC3(C)C)c(OC)n1` [Example 149, Pyrimido[2,1-c][1,4]oxazine-2-carboxamide, N-[[2-(2,4-dimethoxy-5-pyrimidinyl)phenyl]methyl]-4,6,7,9-tetrahydro-3-hydroxy-9,9-dimethyl-4-oxo-] was 2 to 100 nM. On to `CN(C)CCN(C)C(=O)c1ncn(-c2cc(F)ccc2CNC(=O)c2nc3n(c(=O)c2O)CCOC3(C)C)n1` [Example 71, Pyrimido[2,1-c][1,4]oxazine-2-carboxamide, N-[[2-[3-[[[2-(dimethylamino)ethyl]methylamino]carbonyl]-1H-1,2,4-triazol-1-yl]-4-fluorophenyl]methyl]-4,6,7,9-tetrahydro-3-hydroxy-9,9-dimethyl-4-oxo-], for which the concentration for half-maximal inhibition (IC50) was 2 to 100 nM. The value for `CC1(C)OCCn2c1nc(C(=O)NCc1ccccc1N1C(=O)C=CC1=O)c(O)c2=O` [Example 137, N-(2-(2,5-Dioxo-2H-pyrrol-1(5H)-yl)benzyl)-3-hydroxy-9,9-dimethyl-4-oxo-4,6,7,9-tetrahydropyrimido[2,1-c][1,4]oxazine-2-carboxamide] was 2 to 100 nM; that for `CC1(C)OCCn2c1nc(C(=O)NCc1ccc(F)cc1OCC(=O)N1CCOCC1)c(O)c2=O` [Example 46, Pyrimido[2,1-c][1,4]oxazine-2-carboxamide, N-[[4-fluoro-2-[2-(4-morpholinyl)-2-oxoethoxy]phenyl]methyl]-4,6,7,9-tetrahydro-3-hydroxy-9,9-dimethyl-4-oxo-] was 2 to 100 nM; that for `CC1(C)OCCn2c1nc(C(=O)NCc1ccccc1-c1ccc(CN)cc1)c(O)c2=O` [Example 169] was 2 to 100 nM. Take `CC1(C)OCCn2c1nc(C(=O)NCc1ccc(F)cc1Cl)c(O)c2=O` [Example 36, Pyrimido[2,1-c][1,4]oxazine-2-carboxamide, N-[(2-chloro-4-fluorophenyl)methyl]-4,6,7,9-tetrahydro-3-hydroxy-9,9-dimethyl-4-oxo-]: the IC50 was in the range of 2 to 100 nM.

For the molecule `COc1cc(Cl)ccc1-c1ccccc1CNC(=O)c1nc2n(c(=O)c1O)CCOC2(C)C` [Example 161, Pyrimido[2,1-c][1,4]oxazine-2-carboxamide, N-[(4′-chloro-2′-methoxy[1,1′-biphenyl]-2-yl)methyl]-4,6,7,9-tetrahydro-3-hydroxy-9,9-dimethyl-4-oxo-], the half-maximal inhibitory concentration (IC50) lay within 2 to 100 nM.
